Reference: patent US11618909B2, “Acid-tolerant Saccharomyces cerevisiae and use thereof” (JIANGNAN UNIVERSITY, priority 2020, dated 2023)

System: mutant MTPfo-4
Assay: Tolerance to other acids by OD600, mutant MTPfo-4
Format: cell-based, Saccharomyces cerevisiae
Conditions: pH 2.44, OD600 over 72 h
Description: To analyze the tolerance of the mutant MTPfo-4 to other acids, 10 acids, including 2 inorganic acids of HCl and H3PO4, and 8 organic acids of lactic acid, malic acid, fumaric acid, succinate acid, tartaric acid, furoic acid, gluconic acid, and citric acid, were added exogenously in the present invention to analyze the acid tolerance of cells. The initial pH was controlled to 2.44. The cells were sampled every 12 h for consecutive 72 h. The acid tolerance of cells was analyzed by determining the OD600. […] The cells were sampled every 12 h for consecutive 72 h. The acid resistance of the cells was analyzed again by determining the OD600.

Row | Structure (SMILES) | effect of the acid on the mutant MTPfo-4
1 | O=C(O)/C=C/C(=O)O [fumaric acid] | inhibitory effect
2 | O=C(O)c1ccco1 [furoic acid] | inhibitory effect
3 | O=C(O)CCC(=O)O [succinic acid] | inhibitory effect
4 | O=C(O)C(O)C(O)C(=O)O (stereo not shown) [tartaric acid] | inhibitory effect
